The results in this text go back to ChEMBL document CHEMBL1201862, “PubChem BioAssay data set” (2004).

Some test systems named below: 786-0; A549; EKVX; HCC 2998; HCT-15; M14; MOLT-4; OVCAR-3; OVCAR-5; SF-268; SK-OV-3; SN12C; UO-31; DU-145; MCF7; MDA-MB-435; NCI/ADR-RES; RXF 393; T47D.
What all share (test): DTP human tumour cell line panel, 48 h

SMILES strings stand for the structures.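 Test compounds were applied to cells in 96-well plates for 48 hours at 5 doses. GI50 = concentration required for 50% inhibition of growth.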 The source made the active and inactive calls. Rule as the data show it: active = GI50 up to about 1.1 µM and inactive = higher. Where only a bound is given, the exact number is not on record here.

The term GI50 denotes the concentration that inhibits growth by half. Consider `O=C1[C@H](Cl)[C@H]2c3cc4ccccc4nc3Oc3ccccc3N12`, for which the GI50 in the assay on 786-0 is 36.8 µM (inactive); in the assay on A549 it was 33.5 µM (inactive); in the assay on EKVX, 81.8 µM (inactive); with HCC 2998 it was 39.4 µM (inactive); with HCT-15 it was 43 µM; with M14 it was 76.9 µM (inactive). The GI50 with MOLT-4 is 27.7 µM (inactive); in the assay on OVCAR-3, 48.4 µM (inactive); in the assay on OVCAR-5, 67.3 µM (inactive); in the assay on SF-268, 25.8 µM (inactive); with SK-OV-3, 45.5 µM (inactive); in the assay with SN12C, 43.4 µM (inactive). The GI50 in the assay with UO-31 was 14.9 µM (inactive).
In the case of `Cc1n[nH]c(=S)n1/N=C/c1ccc(-c2ccc(Cl)cc2)o1`, the GI50 in the assay with 786-0 was > 100 µM (inactive); in the assay on A549 it was > 100 µM (inactive); in the assay on DU-145, > 100 µM (inactive); with EKVX, 61.9 µM (inactive); in the assay on HCT-15, over 100 µM; in the assay on M14 it was > 100 µM (inactive). For the same molecule, the GI50 with MCF7, in the assay on MDA-MB-435, with MOLT-4, in the assay on NCI/ADR-RES, in the assay with OVCAR-3 and in the assay on OVCAR-5 was > 100 µM (inactive) in each case. Moreover, the GI50 with RXF 393 is 43 µM (inactive); with SF-268, 29.2 µM (inactive); in the assay with T47D, > 100 µM (inactive); in the assay with UO-31, > 100 µM (inactive).
Regarding `CN(C)CC(CN(C)C)c1ccccn1`, the GI50 with 786-0 was > 100 µM (inactive); in the assay with A549 it was > 100 µM (inactive); in the assay on EKVX it was > 100 µM (inactive); in the assay on HCT-15 it was over 100 µM; in the assay on M14 it was > 100 µM (inactive); in the assay with MCF7 it was > 100 µM (inactive). In addition, the GI50 in the assay on MDA-MB-435, in the assay on MOLT-4, in the assay on NCI/ADR-RES, with OVCAR-3, in the assay on OVCAR-5 and in the assay with RXF 393 was > 100 µM (inactive) in each case. Also, the GI50 in the assay with SF-268, in the assay on SK-OV-3, with SN12C and in the assay on UO-31 was > 100 µM (inactive) each time.
As to `CCN(CC)c1nc(N(C)C)c2ccc(OC)cc2n1`, the GI50 was 17.5 µM (inactive) with 786-0; 19.7 µM (inactive) in the assay with A549; 3.95 µM (inactive) with EKVX; 11.6 µM (inactive) in the assay with HCC 2998; 12.4 µM with HCT-15; 8.75 µM (inactive) in the assay on M14. Besides, the GI50 was 10.9 µM (inactive) with MCF7; 10.5 µM (inactive) in the assay on MDA-MB-435; 3.49 µM (inactive) with MOLT-4; 11.9 µM (inactive) with NCI/ADR-RES; 16.7 µM (inactive) with OVCAR-5; 13.6 µM (inactive) with RXF 393. In addition, the GI50 is 32.3 µM (inactive) in the assay with SF-268, 13.7 µM (inactive) in the assay with SK-OV-3, 15 µM (inactive) in the assay with SN12C and 17.2 µM (inactive) in the assay with T47D.
In the case of `O=C1CSC(c2cccc(Oc3ccccc3)c2)N1c1ccc(Cl)cc1` (stereo not given), the GI50 with 786-0 is 31.8 µM (inactive); in the assay with A549, 31.9 µM (inactive); in the assay on DU-145, 52.2 µM (inactive); in the assay on EKVX it was 20.7 µM (inactive); in the assay with HCT-15, 26.4 µM; with M14, 15 µM (inactive). Besides, the GI50 with MCF7 was 15.3 µM (inactive); with MDA-MB-435 it was 23.2 µM (inactive); with MOLT-4, 13.6 µM (inactive); with NCI/ADR-RES it was 24.4 µM (inactive); with OVCAR-3, 39.4 µM (inactive); in the assay on OVCAR-5 it was 65.5 µM (inactive). The GI50 with RXF 393 is 20.4 µM (inactive); with SF-268, 30.3 µM (inactive); with SK-OV-3, 66.4 µM (inactive); in the assay with SN12C, 41.3 µM (inactive); in the assay on T47D it was 10.2 µM (inactive); in the assay on UO-31, 34.5 µM (inactive).
With `C/C=C\C(CC(=O)NCCC1CN(S(=O)(=O)C(F)(F)F)c2ccccc21)CC(=O)OC` (stereo not given), the GI50 in the assay on 786-0 is 34.2 µM (inactive); in the assay with A549, 45.8 µM (inactive); in the assay on DU-145, > 100 µM (inactive); in the assay on EKVX, 37.4 µM (inactive); with HCC 2998 it was 53.3 µM (inactive); with HCT-15, 42.8 µM. In addition, the GI50 in the assay on M14 is 36.5 µM (inactive); in the assay on MCF7 it was 49.9 µM (inactive); with MDA-MB-435, > 10 µM (inactive); with MOLT-4 it was 29.6 µM (inactive); with NCI/ADR-RES it was 29.6 µM (inactive); in the assay on OVCAR-3, 38.3 µM (inactive). For the same molecule, the GI50 is 58.6 µM (inactive) in the assay on OVCAR-5, 36.3 µM (inactive) in the assay with RXF 393, 64.3 µM (inactive) in the assay on SK-OV-3 and 35.3 µM (inactive) in the assay on UO-31.
`CCOC(=O)/C=C1\c2ccccc2C(=O)N1CC(=O)OCC`: the GI50 in the assay with 786-0 is > 100 µM (inactive); in the assay with A549, > 100 µM (inactive); in the assay with DU-145 it was > 100 µM (inactive); with EKVX, > 100 µM (inactive); in the assay with HCT-15, over 100 µM; in the assay with M14, > 100 µM (inactive). Further, the GI50 is > 100 µM (inactive) in the assay with MDA-MB-435; > 100 µM (inactive) with MOLT-4; 50 µM (inactive) with NCI/ADR-RES; > 100 µM (inactive) in the assay with OVCAR-3; > 100 µM (inactive) in the assay with OVCAR-5; > 100 µM (inactive) in the assay with RXF 393. Also, the GI50 in the assay on SF-268, in the assay with SK-OV-3, in the assay with SN12C, in the assay on T47D and in the assay on UO-31 was > 100 µM (inactive) each time.
Regarding `O=Cc1ccc(-c2ccc(S(=O)(=O)O)cc2)o1`, the GI50 is > 100 µM (inactive) in the assay on 786-0; > 100 µM (inactive) with A549; > 100 µM (inactive) in the assay on DU-145; > 100 µM (inactive) in the assay with EKVX; > 100 µM (inactive) in the assay with HCC 2998; over 100 µM in the assay on HCT-15. In addition, the GI50 in the assay on M14, with MCF7, in the assay with MDA-MB-435, with MOLT-4, in the assay on NCI/ADR-RES and in the assay with OVCAR-3 was > 100 µM (inactive) each time. In addition, the GI50 with OVCAR-5, in the assay on RXF 393, in the assay with SF-268, in the assay on SK-OV-3, in the assay on SN12C and in the assay on UO-31 was > 100 µM (inactive) in each case.
Regarding `CC(=O)[C@@]1(C)CC2(CCN(C)CC2)OC1C` (stereo not given in full), the GI50 is > 100 µM (inactive) with 786-0; > 100 µM (inactive) with A549; > 100 µM (inactive) with DU-145; > 100 µM (inactive) with EKVX; over 100 µM with HCT-15; > 100 µM (inactive) with M14. The GI50 in the assay with MDA-MB-435, in the assay on MOLT-4, in the assay with NCI/ADR-RES, in the assay with OVCAR-3, with OVCAR-5 and in the assay on RXF 393 was > 100 µM (inactive) throughout. Further, the GI50 with SF-268, in the assay on SK-OV-3, in the assay on SN12C, in the assay on T47D and in the assay on UO-31 was > 100 µM (inactive) in each case.
As to `Cc1oc2nc(N(C)C)nc(NN)c2c1C`, the GI50 was > 100 µM (inactive) in the assay with 786-0; > 100 µM (inactive) in the assay with A549; > 100 µM (inactive) in the assay on DU-145; > 100 µM (inactive) in the assay on EKVX; > 100 µM (inactive) in the assay with HCC 2998; over 100 µM in the assay on HCT-15. In addition, the GI50 in the assay on M14, in the assay on MDA-MB-435, in the assay with MOLT-4, in the assay on NCI/ADR-RES, with OVCAR-3 and with OVCAR-5 was > 100 µM (inactive) each time. Further, the GI50 in the assay with RXF 393 is > 100 µM (inactive); in the assay on SF-268 it was > 100 µM (inactive); in the assay with SN12C, > 100 µM (inactive); in the assay on T47D, > 100 µM (inactive); in the assay on UO-31, 61.7 µM (inactive).
`Cc1ccc(/C=C2\Cc3cc(C)c(C)cc3C2=O)c(C(=O)O)c1`: the GI50 in the assay on 786-0 was 40.2 µM (inactive); with A549, 30.8 µM (inactive); with DU-145 it was 26.7 µM (inactive); in the assay on EKVX, 87.7 µM (inactive); in the assay on HCC 2998 it was 26.1 µM (inactive); in the assay on HCT-15, 27.5 µM. Further, the GI50 in the assay on MCF7 is 24.7 µM (inactive); with MOLT-4, 34.3 µM (inactive); in the assay with OVCAR-3, 37.9 µM (inactive); in the assay with RXF 393, 28.2 µM (inactive); in the assay with SF-268, 24.3 µM (inactive); with SN12C, 30.5 µM (inactive). Further, the GI50 in the assay on T47D is 43.3 µM (inactive); with UO-31, 29 µM (inactive).
For the molecule `COC(=O)C1Cc2c([nH]c3ccccc23)-c2[nH]c3ccccc3c2CC(NC(C)=O)C(=O)NCC(=O)NCC(=O)N1` (stereo not given), the GI50 in the assay on 786-0 is > 100 µM (inactive); with A549, > 100 µM (inactive); in the assay on DU-145, > 100 µM (inactive); in the assay with EKVX, > 100 µM (inactive); in the assay with HCT-15 it was over 100 µM; in the assay on M14, > 100 µM (inactive). Also, the GI50 with MDA-MB-435, in the assay on MOLT-4, in the assay with NCI/ADR-RES, in the assay on OVCAR-3, with OVCAR-5 and in the assay with RXF 393 was > 100 µM (inactive) throughout. For the same molecule, the GI50 in the assay with SF-268, in the assay on SK-OV-3, in the assay on SN12C, in the assay on T47D and in the assay with UO-31 was > 100 µM (inactive) throughout.
